Series [1] has as its system rat mesangial cell line. The experiment in a line: TGF-β stimulated 3H-proline incorporation in mesangial cells (Example 5). It counts as cell-based. The conditions noted are these: for inhibition at 10 µM / inhibition at 30 µM / inhibition at 1 µM / inhibition at 3 µM: Rattus norvegicus, Mesangial cell, 5 ng/mL TGF-β1, 44 h, read-out: Mesangial Cell Assay TGF-β % reduction of TGF-β stimulation_proline inc.; for Collagen synthesis: inhibition ranked against tranilast (T) or FT11. The method, then:
(§1) A well-characterized cloned rat mesangial cell line (gift of D Nikolic-Patterson) is cultured in DMEM with FBS, 100 U/mL penicillin, and 100 ug/mL streptomycin in a humidified 5% CO2 atmosphere at 37° C. Cells are plated into 24-well culture dishes in DMEM/10% FBS at low density and allowed to adhere overnight. Cells are used between passages 20 and 40. The subconfluent cells are starved overnight in DMEM/0.1% FBS containing 150 uM L-ascorbic acid, prior to 4 hours of pre-treatment with or without tranilast or the FT compounds, followed by the addition of 5 ng/mL rhTGF-β11 (R&D Systems) and 1 uCi/mL of L-(2,3,4,5-^3H)-proline. Control wells have the compounds but no TGF-β1 added. Cells are incubated for a further 44 hours during which time their appearance is visually monitored. The cells are then washed three times in ice-cold PBS, twice in ice cold 10% TCA and solubilized in 750 uL 1M NaOH for 45 minutes at 37° C. or overnight at 4° C. A 500 uL aliquot is neutralized with 500 uL 1M HCl and 10 mL scintillation fluid (Instagel Plus-Perkin-Elmer) added. Counts are performed on a beta counter.
To normalize the proline incorporation counts to take into account the proliferative effects of TGF-β1, a BioRad protein assay is performed on a 100-150 uL aliquot of the remaining solubilized cells. The sample is neutralized with an equal amount of 1M HCl prior to the assay. The BSA standards used to construct the standard curve have the same amount of 1M NaOH and 1M HCl added as is present in the samples for assay.
Proline incorporation is expressed as cpm/ug protein. In order to compare inter-assay results, the incorporation is expressed as percentage reduction of TGF stimulated proline incorporation, where TGF alone gives 0% reduction and the zero control gives 100% reduction.

Series [2] relates to Neonatal rat cardiac fibroblasts (NCFs). The experiment in a line: NCF TGF-β collagen synthesis, 3H-proline incorporation (Example 6). It counts as cell-based. The procedure:
Neonatal SD rat cardiac myocytes (NCMs) and fibroblasts (NCFs) were isolated from one-day-old pups with enzymatic digestion as described in detail previously. NCFs were seeded and maintained in high-glucose (25 mmol/L) Dulbecco's modified Eagle's medium (DMEM) (Invitrogen Mount Waverley, Vic, Australia) in the presence of 1% antibiotic/antimycotic (AB/AM) and 10% fetal bovine serum (FBS) (JRH biosciences, Kansas, USA). NCFs were used at passage 2 [31]. Purified NCMs were seeded (1000 cells/mm^2) in 6-well plates and then maintained in serum-free DMEM (Invitrogen, NY, USA) supplemented with insulin and transferrin as described previously (4). Bromodeoxyuridine was included for the first 3 days. 50 mmol/L KCl was added to the medium to prevent spontaneous contraction characteristic of the plated NCMs.
NCFs collagen synthesis assays were performed as described previously. Briefly, NCFs plated at a density of 50,000 cells/well in 12-well plate and incubated overnight. NCFs were then serum starved for 24 hours in high-glucose DMEM. […]
For collagen synthesis, 1 μCi of [^3H]-Proline was added to each well and incubated for further 48 hours before harvest. Cells were harvested by precipitation with 10% TCA on ice for 30 min, before solubilisation with 0.75 mL of 1 mol/L NaOH overnight at 4° C. The samples were then neutralized with 1 mol/L HCl and ^3H level were counted with 10 ml scintillation fluid on a beta-counter to determine [^3H]-proline incorporation.

For series [3], the system named is rat mesangial cell line. In words: Effect on mesangial cell appearance (visual monitoring during proline assay). It counts as cell-based. The method, then: as §1
Compounds in Bold have Minimal Effect on Cell Appearance and Viability

A further series deals with Mesangial cells. The experiment in a line: Mesangial cell MTT assay with TGF-β. To be noted: suppressed = reduced cell viability. It is filed as cell-based, rat. The method, then: Mesangial cells are plated at 15000 cells per well into 96-well culture dishes in DMEM/10% FBS and allowed to adhere overnight. The subconfluent cells are starved overnight in DMEM/0.1% FBS, prior to 4 hours of pre-treatment with or without tranilast or the FT compounds. Following the addition of 5 ng/mL rhTGF-β1, the cells are incubated in a humidified 5% CO2 atmosphere at 37° C. for 44 hours. Control wells have the compounds but no TGF-β1 added. The culture medium is removed from each well and 100 uL MTT (0.5 mg/mL) in starve medium is added to each well. The plates are incubated for a further 4 hours at 37° C. The culture medium is then removed and replaced with 100 μL isopropanol and incubated at 37° C. for 20 to 30 minutes, until the blue formazan crystals have dissolved. The absorbance is measured at a wavelength of 570 nm with background subtraction of 690 nm.
Suppressed MTT Result Indicates Reduced Cell Viability

SMILES strings stand for the structures.

For `C#CCOc1cc(/C=C/C(=O)Nc2ccccc2C(=O)O)ccc1OC` [Analogue 17, (E)-2-[[3-(4-Methoxy-3-propargyloxyphenyl)-1-oxo-2-propenyl]amino]benzoic acid], in the series on rat mesangial cell line [1], the inhibition at 10 µM was in the range of 20 to 50%, the inhibition at 30 µM was ~55% and the Collagen synthesis entry was “>=FT11”. For the same molecule, in series [2] (@ 30 μM), the “NCF TGF-β Collagen Synthesis” value is recorded as ~70% at.

Broadly, the melting point is the temperature, or range, at which the solid turns liquid. Take `COc1cc(/C=C/C(=O)Nc2ccccc2C(=O)O)ccc1OC1CCCC1` [Analogue 26, (E)-2-{[3-(4-Cyclopentyloxy-3-methoxyphenyl)-1-oxo-2-propenyl]amino}benzoic acid]: the melting point was 96 to 98 °C. Further, in the series with rat mesangial cell line [1], the inhibition at 1 µM is ~13%, the inhibition at 3 µM was found to be 30%, the inhibition at 10 µM was 85% and the inhibition at 30 µM amounted to 93%. The Collagen synthesis result with rat mesangial cell line [1] is “>FT11”. The “Effect on mesangial cell appearance” value in the series with rat mesangial cell line [3] (@ 30 μM) is “sparse”. In the series on rat mesangial cell line [3] (@ 100 μM), the “Effect on mesangial cell appearance” value is “lifting off”. Further, the “NCF TGF-β Collagen Synthesis” value in series [2] (@ 10 μM) is recorded as 28% at.

The molecule `COc1cc(/C=C/C(=O)Nc2ccccc2C(=O)O)ccc1OCC1CCCCC1` [Analogue 28, (E)-2-{[3-(4-Cyclohexylmethoxy-3-methoxyphenyl)-1-oxo-2-propenyl]amino}benzoic acid] came in with a melting point of 207 to 210 °C. For the same molecule, in the series with rat mesangial cell line [1], the inhibition at 10 µM was ~40%, the inhibition at 30 µM was determined as 173% and the Collagen synthesis entry was “<FT11”. Also, the “Effect on mesangial cell appearance” value with rat mesangial cell line [3] (@ 30 μM) is “Stressed @”. For the same molecule, the “Effect on mesangial cell appearance” value with rat mesangial cell line [3] (@ 100 μM) is recorded as “Dead @”. Moreover, in the series on Mesangial cells (@ 10 μM), the “Mesangial cell MTT Assay TGF-β” value is reported as “deadly ®”.

In turn, `COc1ccc(/C=C/C(=O)Nc2ccccc2C(=O)O)cc1OC1CCCC1` [Analogue 29, (E)-2-{[3-(3-Cyclopentyloxy-4-methoxyphenyl)-1-oxo-2-propenyl]amino}benzoic acid] registered a melting point of 211 to 217 °C. Also, in the series on rat mesangial cell line [1], the inhibition at 1 µM is ~8%, the inhibition at 3 µM was determined as 40%, the inhibition at 10 µM is ~90% and the Collagen synthesis entry is “>FT11”. For the same molecule, in the series on rat mesangial cell line [3] (@ 10 μM), the “Effect on mesangial cell appearance” value is “Sparse @”. In the series on rat mesangial cell line [3] (@ 100 μM), the “Effect on mesangial cell appearance” value was “Stressed @”. For the same molecule, the “Mesangial cell MTT Assay TGF-β” value in the series on Mesangial cells (@ 30 μM) is “Suppressed”. For the same molecule, in series [2] (@ 10 μM), the “NCF TGF-β Collagen Synthesis” value was 10% @ 10 μM. Also, the “NCF TGF-β Collagen Synthesis” value in series [2] (@ 30 μM) was 25% @ 30 μM.

In turn, `C#CCCCCOc1ccc(/C=C/C(=O)Nc2ccccc2C(=O)O)cc1OC` [Analogue 33, (E)-2-[[3-(4-(Hex-5-ynyloxy)-3-methoxyphenyl)-1-oxo-2-propenyl]amino]benzoic acid] gave a melting point of 148 to 150 °C. For the same molecule, in the series with rat mesangial cell line [1], the inhibition at 1 µM is ~15%, the inhibition at 3 µM came to 40%, the inhibition at 10 µM stood at 60% and the inhibition at 30 µM was found to be 80%. For the same molecule, in the series with rat mesangial cell line [1], the Collagen synthesis result is “>FT11”. Further, the “Effect on mesangial cell appearance” value with rat mesangial cell line [3] (@ 30 μM) is “Looking bad”. For the same molecule, the “Mesangial cell MTT Assay TGF-β” value in the series on Mesangial cells (@ 10 μM) was “Severely”.

Consider `C#CCCCCOc1cc(/C=C/C(=O)Nc2ccccc2C(=O)O)ccc1OC` [Analogue 34, (E)-2-[[3-(3-(Hex-5-ynyloxy)-4-methoxyphenyl)-1-oxo-2-propenyl]amino]benzoic acid], for which the melting point was 135 to 137 °C. For the same molecule, in the series with rat mesangial cell line [1], the inhibition at 10 µM was ~80%, the inhibition at 30 µM was determined as 94% and the Collagen synthesis result is recorded as “>FT11”. Besides, the “Effect on mesangial cell appearance” value in the series on rat mesangial cell line [3] (@ 30 μM) is “Looking bad”. For the same molecule, the “Mesangial cell MTT Assay TGF-β” value in the series with Mesangial cells (@ 30 μM) was “Suppressed”.

With `C#CCCCOc1ccc(/C=C/C(=O)Nc2ccccc2C(=O)O)cc1OC` [Analogue 35, (E)-2-[[3-(3-Methoxy-4-(pent-4-ynyloxy)phenyl)-1-oxo-2-propenyl]amino]benzoic acid], the melting point is 166.5 to 167.5 °C. Further, in the series on rat mesangial cell line [1], the inhibition at 3 µM is ~25%, the inhibition at 10 µM turned out to be 50%, the inhibition at 30 µM was 60 to 100% and the Collagen synthesis entry is reported as “=>FT11”. Further, in the series on rat mesangial cell line [3] (@ 30 μM), the “Effect on mesangial cell appearance” value is “Looking bad”. Further, the “Mesangial cell MTT Assay TGF-β” value in the series with Mesangial cells (@ 10 μM) is given as “Suppressed”.

The values above are taken from patent US9561201B2, “Therapeutic compounds” (Fibrotech Therapeutics Pty Ltd, priority 2006, dated 2017).
